This is an account of results in patent publication US20120041036A1, “SUBSTITUTED ACYLGUANIDINE DERIVATIVES (AS AMENDED)” (priority 2009, published 2012).

Where a name gives a salt, the structure may show the parent alone.

The target in one assay is T1, human 5-HT5A receptor (Homo sapiens, UniProt P47898).
T1 construct: expressed in transfected cells; membrane preparation
T1 sequence (P47898 whole entry): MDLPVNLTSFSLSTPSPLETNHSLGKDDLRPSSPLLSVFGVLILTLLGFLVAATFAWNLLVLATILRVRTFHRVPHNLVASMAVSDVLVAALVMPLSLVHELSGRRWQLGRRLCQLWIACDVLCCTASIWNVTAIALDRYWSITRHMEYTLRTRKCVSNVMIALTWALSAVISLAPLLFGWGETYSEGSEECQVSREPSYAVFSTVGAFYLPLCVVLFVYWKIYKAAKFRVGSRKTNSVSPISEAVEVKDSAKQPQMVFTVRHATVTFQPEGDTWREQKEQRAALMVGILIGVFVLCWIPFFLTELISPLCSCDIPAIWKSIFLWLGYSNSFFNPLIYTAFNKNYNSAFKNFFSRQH
As to the kind of experiment: Test on a human 5-HT5A receptor binding inhibition ([3H]5-CT, membrane from HEK293 cells). The settings on record: human 5-HT5A receptor membrane; read-out: Kd value of [3H]5-CT determined from Scatchard analysis. On the procedure: The ORF (open reading frame; protein coding region) of a human 5-HT5A receptor (Genbank AF498985) was cloned from a human hippocampus cDNA library, and then inserted into a pCR2.1 vector (Invitrogen), and Escherichia coli containing the plasmid was cultured in a large amount. Next, the full-length cDNA sequence of the human 5-HT5A receptor was analyzed, and recombined into a pCDNA3.1 vector (Invitrogen) as an expression vector and cultured in a large amount. HEK293 established cells (ATCC) derived from the human fetal kidney were seeded, the expression plasmid (1 μg) obtained above were added thereto with LIPOFECTAMINE 2000 (Invitrogen; 2 μl), the gene was transfected into HEK293 cells, and the expression cells were screened with a drug-resistant marker, Geneticin (G418 sulfate 500 μg/ml; Kanto Chemical Co., Inc.). Thus prepared recombinant cells which expressed the gene were cultured in a medium containing D-MEM (Dulbecco's modified eagle medium, Sigma), 10% FCS (Fetal calf serum: fetal bovine serum), 1% Pc./Sm (Penicillin/Streptomycin, Invitrogen), and 500 μg/ml G418 for 3 days. These experimental operations followed a manual for gene operation experiment and an instruction appended in a reagent, and the like, such as a known method (Sambrook, J. et al, Molecular Cloning—A Laboratory Manual”, Cold Spring Harbor laboratory, NY, 1989).
HEK293 cells for forced expressions of a human 5-HT5A receptor were cultured in a F500 plate, and scraped with a scraper. After centrifugation, the precipitate was collected, and an incubation buffer (50 mM Tris (HCl) (pH 7.4), 10 mM MgSO4, and 0.5 mM EDTA (ethylenediamine tetraacetic acid)) was added thereto. After homogenization, it was further centrifuged, and the incubation buffer was added to the precipitate, followed by thoroughly suspending. The operation was repeated, and protein concentration was measured, thereby completing preparation of the membrane.
A solution of the compound to be tested and 100 μM 5-CT (5-carboxamidetriptamine) in DMSO was added to a 96-well plate at 2 μl/well, suspended in an incubation buffer, and a membrane from HEK293 cells for forced expressions of a human 5-HT5A receptor prepared at 200 μg/ml was added at 100 μl/well. After incubation at room temperature for 15 minutes, a [^3H]5-CT solution (2 nM [^3H]5-CT, incubation buffer) was added thereto at 100 μl/well.
Separately, 100 μl of the solution was distributed into a liquid scintillation vial, and 2 ml of Aquasol II (registered trademark) was added thereto, followed by stirring. Then, radioactivity was measured by a liquid scintillation counter. It was incubated at 37° C. for 60 minutes. The reaction mixture was sucked into 96-well GF/C filter plate that had been pre-treated with 0.2% polyethyleneimine, and washed six times with an ice-cooled, 50 mM Tris (pH 7.5) buffer. The GF/C filter plate was dried.
Microscint TMPS (registered trademark) was added thereto at 40 μl/well. Radioactivity remaining on the GF/C filter plate was measured by a top counter.
The [^3H]5-CT binding inhibiting activity by the compound to be tested in each experiment was determined as an IC50 value with a radioactivity upon addition of DMSO alone being 0% inhibition, and a radioactivity upon addition of 1 μM 5-CT being 100% inhibition. Separately, Ki values were calculated from the Kd value of the [^3H]5-CT determined from Scatchard analysis, by the following equation.
As for `NCCc1c[nH]c2ccc(C(N)=O)cc12` [[^3H]5-CT, 5-carboxamidetriptamine, reference compound], the Kd was 4.95 nM.

Still in this assay, the particulars now being: membrane from HEK293 cells expressing human 5-HT5A receptor; Ki calculated from IC50 and Kd of [3H]5-CT.
For `N#Cc1ccc2ccc(C(=O)N=C(N)N)cc2c1-c1c(F)cccc1Cl` [Example 1, 8-(2-chloro-6-fluorophenyl)-7-cyano-N-(diaminomethylene)-2-naphthamide hydrochloride], the Ki was 4.3 nM.

For the molecule `N#Cc1ccc2ccc(C(=O)N=C(N)N)cc2c1-c1c(F)cc(F)cc1F` [Example 2], the Ki was 1 to 30 nM.

As to `N#Cc1ccc2ccc(C(=O)N=C(N)N)cc2c1-c1ccncc1Cl` [Example 3], the Ki was 30 to 300 nM.

As to `N#Cc1ccc2ccc(C(=O)N=C(N)N)cc2c1-c1ccncc1F` [Example 4], the Ki was 30 to 300 nM.

For `N#Cc1cc(F)c(-c2c(F)cc(F)cc2F)c2cc(C(=O)N=C(N)N)ccc12` [Example 5], the inhibition constant (Ki) was 1 to 30 nM.

Consider `N#Cc1ccc2ccc(C(=O)N=C(N)N)cc2c1-c1ccc(F)cc1F` [Example 6], for which the Ki was 1 to 30 nM.

Take `N#Cc1ccc2ccc(C(=O)N=C(N)N)cc2c1-c1c(F)cccc1F` [Example 7]: the inhibition constant (Ki) is 1 to 30 nM.

For the molecule `COc1cccc(F)c1-c1c(C#N)ccc2ccc(C(=O)N=C(N)N)cc12` [Example 8], the Ki was 1 to 30 nM.

`N#Cc1ccc2ccc(C(=O)N=C(N)N)cc2c1-c1ccccc1Cl` [Example 9]: the Ki is 1 to 30 nM.

As for `N#Cc1ccc2ccc(C(=O)N=C(N)N)cc2c1-c1ccccc1F` [Example 10], the inhibition constant (Ki) is 1 to 30 nM.

`CSc1ccc2ccc(C(=O)N=C(N)N)cc2c1-c1c(F)cc(F)cc1F` [Example 12]: the Ki was 1 to 30 nM.

Take `CS(=O)(=O)c1ccc2ccc(C(=O)N=C(N)N)cc2c1-c1c(F)cc(F)cc1F` [Example 13]: the Ki is 30 to 300 nM.

Take `N#Cc1ccc2ccc(C(=O)N=C(N)N)cc2c1-c1ccc(F)cc1` [Example 14]: the inhibition constant Ki was 1 to 30 nM.

Consider `COc1cc(C#N)ccc1-c1c(C#N)ccc2ccc(C(=O)N=C(N)N)cc12` [Example 15], for which the Ki was 30 to 300 nM.

As to `N#Cc1ccc2ccc(C(=O)N=C(N)N)cc2c1C1=CCOCC1` [Example 16], the inhibitory constant (Ki) was 30 to 300 nM.

On to `N#Cc1ccc2ccc(C(=O)N=C(N)N)cc2c1-c1c(F)cc(CO)cc1F` [Example 17], for which the Ki is 30 to 300 nM.

For the molecule `N#Cc1ccc2ccc(C(=O)N=C(N)N)cc2c1-c1c(F)cncc1F` [Example 18], the inhibitory constant (Ki) was 1 to 30 nM.

For `N#Cc1cc(F)c(-c2ccncc2)c2cc(C(=O)N=C(N)N)ccc12` [Example 19], the Ki was 30 to 300 nM.

With `N#Cc1ccc2ccc(C(=O)N=C(N)N)cc2c1-c1ccccc1` [Example 20], the Ki is 1 to 30 nM.

For the molecule `N#Cc1ccc2ccc(C(=O)N=C(N)N)cc2c1C1CC1` [Example 21], the Ki was 30 to 300 nM.

For another assay, the system named is hyperactivity caused by MK-801. As to the kind of experiment: Improvement effect on increase in motion induced by methamphetamine or MK-801 in mice. The class given is in vivo. The conditions noted are these: male ICR mouse; oral dose 0.03 mg/kg; MK-801 0.3 mg/kg i.p.; motion measured 60 minutes; significance P<0.05. As to the method: The improvement effect of compound of formula (I) was evaluated by measuring the quantity of motion by IR irradiation when a compound was administered to a mouse in which hyperactivity was caused by methamphetamine (hereinafter, simply referred to as “MAP”) or MK-801, known as an animal model of schizophrenia.
An animal was taken out of a breeding cage, orally administered with a compound to be tested, and then placed into a cage for breeding. After 30 minutes, the animal was put into a cage for measurement, and the motion with the compound to be tested alone was measured. Further, after 30 to 90 minutes, the animal was taken out, and intraperitoneally administered with a drug for increasing the motion (MAP; 1 mg/kg or MK-801; 0.3 mg/kg, dissolved in a physiological saline, respectively). Then, the motion for a certain period of time (60 minutes) was measured by using a motion measurement device (CompACT AMS from Muromachi Kikai Co., Ltd.) by means of an infrared sensor.
For a normal mouse (a mouse administered with physiological saline) and a mouse administered with a drug for increasing the motion, a Student's T test was performed for evaluation for each interval. For a group administered with the compound to be tested, an assay was performed using a solvent (vehicle) group and a Dunnett's T test. […]
For the molecule `N#Cc1ccc2ccc(C(=O)N=C(N)N)cc2c1-c1c(F)cccc1Cl` [Example 1, 8-(2-chloro-6-fluorophenyl)-7-cyano-N-(diaminomethylene)-2-naphthamide hydrochloride], the “inhibition of hyperactivity (motion) caused by MK-801” value is reported as “significantly inhibited”.

By Kd is commonly meant a measure of binding affinity in units of concentration. Broadly, the Ki is the equilibrium dissociation constant of an inhibitor or competing ligand from its target.
